Source: US8586550B2, “Thiazole derivatives as SGLT2 inhibitors and pharmaceutical composition comprising same” (Green Cross Corporation, priority 2010, dated 2013)

Target: T1, Human SGLT2 (hSGLT2) (Homo sapiens, UniProt P31639)
T1 construct: expressed in transfected cells
T1 sequence (P31639 1-672): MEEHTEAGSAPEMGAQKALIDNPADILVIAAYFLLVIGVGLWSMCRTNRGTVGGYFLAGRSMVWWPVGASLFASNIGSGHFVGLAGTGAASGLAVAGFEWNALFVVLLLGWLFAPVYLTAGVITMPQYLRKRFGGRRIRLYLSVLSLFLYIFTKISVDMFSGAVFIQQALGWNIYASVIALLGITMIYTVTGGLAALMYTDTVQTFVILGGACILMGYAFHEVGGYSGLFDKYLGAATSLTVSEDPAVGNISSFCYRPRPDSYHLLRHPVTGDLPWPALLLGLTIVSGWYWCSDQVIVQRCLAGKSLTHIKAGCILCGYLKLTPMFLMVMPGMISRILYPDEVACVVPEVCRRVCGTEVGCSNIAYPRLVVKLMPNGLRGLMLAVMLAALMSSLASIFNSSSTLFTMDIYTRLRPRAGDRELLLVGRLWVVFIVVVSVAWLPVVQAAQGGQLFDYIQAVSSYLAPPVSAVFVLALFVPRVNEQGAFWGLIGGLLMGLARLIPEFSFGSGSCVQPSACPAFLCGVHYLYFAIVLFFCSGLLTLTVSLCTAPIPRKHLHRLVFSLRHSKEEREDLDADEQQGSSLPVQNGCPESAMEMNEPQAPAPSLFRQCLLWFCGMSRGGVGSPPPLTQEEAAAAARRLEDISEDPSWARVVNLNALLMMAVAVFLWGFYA
Assay: Sodium-dependent glucose transport (14C-AMG uptake) assay in CHO cells stably expressing hSGLT2
Format: cell-based
Settings: CHO cells expressing hSGLT2, 14C-AMG uptake, 37° C. for 2 h; single determinations; read-out: hSGLT2 Inhibitory Activity IC50
Description: Cloning and Cell Line Construction for Human SGLT2
Human SGLT2 (hSGLT2) gene was amplified by PCR from cDNA-Human Adult Normal Tissue Kidney (Invitrogen). The hSGLT2 sequence was cloned into pcDNA3.1(+) for mammalian expression and were stably transfected into chinese hamster ovary (CHO) cells. SGLT2-expressing clones were selected based on resistance to G418 antibiotic (Geneticin) and activity in the ^14C-α-methyl-D-glucopyranoside (^14C-AMG) uptake assay.
Inhibitory Effects on Human SGLT2 Activities
For sodium-dependent glucose transport assay, cells expressing hSGLT2 were seeded into a 96-well culture plate at a density of 5×10^4 cells/well in RPMI medium 1640 containing 10% fetal bovine serum. The cells were used 1 day after plating. They were incubated in pretreatment buffer (10 mM HEPES, 5 mM Tris, 140 mM choline chloride, 2 mM KCl, 1 mM CaCl2, and 1 mM MgCl2, pH 7.4) at 37° C. for 10 min. They were then incubated in uptake buffer (10 mM HEPES, 5 mM Tris, 140 mM NaCl, 2 mM KCl, 1 mM CaCl2, 1 mM MgCl2, and 1 mM ^14C-nonlabeled AMG, pH 7.4) containing ^14C-labeled (8 μM) and inhibitor or dimethylsulfoxide (DMSO) vehicle at 37° C. for 2 h. Cells were washed twice with washing buffer (pretreatment buffer containing 10 mM AMG at room temperature) and then the radioactivity was measured using a liquid scintillation counter. IC50 was determined by nonlinear regression analysis using GraphPad PRISM [Katsuno, K. et al. J. Pharmacol. Exp. Ther. 2007, 320, 323-330; Han, S. et al. Deabetes, 2008, 57, 1723-1729].

IC50 [nM]	SMILES
14.6	OC[C@H]1O[C@@H](c2ccc(C(F)(F)F)c(Cc3ncc(-c4ccsc4)s3)c2)[C@H](O)[C@@H](O)[C@@H]1O [Example 50, (2R,3S,4R,5R,6S)-2-(Hydroxymethyl)-6-(3-((5-(thiophen-3-yl)thiazol-2-yl)methyl)-4-(trifluoromethyl)phenyl)tetrahydro-2H-pyran-3,4,5-triol]
20.8	OC[C@H]1O[C@@H](c2ccc(C(F)(F)F)c(Cc3ncc(-c4ccccc4)s3)c2)[C@H](O)[C@@H](O)[C@@H]1O [Example 51, (2R,3S,4R,5R,6S)-2-(Hydroxymethyl)-6-(3-((5-phenylthiazol-2-yl)methyl)-4-(trifluoromethyl)phenyl)tetrahydro-2H-pyran-3,4,5-triol]
87.2	OC[C@H]1O[C@@H](c2ccc(C(F)(F)F)c(Cc3ncc(-c4ccc(F)cc4)s3)c2)[C@H](O)[C@@H](O)[C@@H]1O [Example 52, (2S,3R,4R,5S,6R)-2-(3-((5-(4-Fluorophenyl)thiazol-2-yl)methyl)-4-(trifluoromethyl)phenyl)-6-(hydroxymethyl)tetrahydro-2H-pyran-3,4,5-triol]
3.49	OC[C@H]1O[C@@H](c2cc(Cc3ncc(-c4ccco4)s3)c(Cl)cc2F)[C@H](O)[C@@H](O)[C@@H]1O [Example 53, (2S,3R,4R,5S,6R)-2-(4-Chloro-2-fluoro-5-((5-(furan-2-yl)thiazol-2-yl)methyl)phenyl)-6-(hydroxymethyl)tetrahydro-2H-pyran-3,4,5-triol]
5.35	OC[C@H]1O[C@@H](c2cc(Cc3ncc(-c4ccoc4)s3)c(Cl)cc2F)[C@H](O)[C@@H](O)[C@@H]1O [Example 54, (2S,3R,4R,5S,6R)-2-(4-Chloro-2-fluoro-5-((5-(furan-3-yl)thiazol-2-yl)methyl)phenyl)-6-(hydroxymethyl)tetrahydro-2H-pyran-3,4,5-triol]
3.88	OC[C@H]1O[C@@H](c2cc(Cc3ncc(-c4cccs4)s3)c(Cl)cc2F)[C@H](O)[C@@H](O)[C@@H]1O [Example 55, (2S,3R,4R,5S,6R)-2-(4-Chloro-2-fluoro-5-((5-(thiophen-2-yl)thiazol-2-yl)methyl)phenyl)-6-(hydroxymethyl)tetrahydro-2H-pyran-3,4,5-triol]
2.12	OC[C@H]1O[C@@H](c2cc(Cc3ncc(-c4ccsc4)s3)c(Cl)cc2F)[C@H](O)[C@@H](O)[C@@H]1O [Example 56, (2S,3R,4R,5S,6R)-2-(4-Chloro-2-fluoro-5-((5-(thiophen-3-yl)thiazol-2-yl)methyl)phenyl)-6-(hydroxymethyl)tetrahydro-2H-pyran-3,4,5-triol]
4.57	OC[C@H]1O[C@@H](c2cc(Cc3ncc(-c4ccccc4)s3)c(Cl)cc2F)[C@H](O)[C@@H](O)[C@@H]1O [Example 57, (2S,3R,4R,5S,6R)-2-(4-Chloro-2-fluoro-5-((5-phenylthiazol-2-yl)methyl)phenyl)-6-(hydroxymethyl)tetrahydro-2H-pyran-3,4,5-triol]
5.43	OC[C@H]1O[C@@H](c2cc(Cc3ncc(-c4ccco4)s3)c(Cl)cc2Cl)[C@H](O)[C@@H](O)[C@@H]1O [Example 59, (2S,3R,4R,5S,6R)-2-(2,4-Dichloro-5-((5-(furan-2-yl)thiazol-2-yl)methyl)phenyl)-6-(hydroxymethyl)tetrahydro-2H-pyran-3,4,5-triol]
13.3	OC[C@H]1O[C@@H](c2cc(Cc3ncc(-c4ccoc4)s3)c(Cl)cc2Cl)[C@H](O)[C@@H](O)[C@@H]1O [Example 60, (2S,3R,4R,5S,6R)-2-(2,4-Dichloro-5-((5-(furan-3-yl)thiazol-2-yl)methyl)phenyl)-6-(hydroxymethyl)tetrahydro-2H-pyran-3,4,5-triol]
4.77	OC[C@H]1O[C@@H](c2cc(Cc3ncc(-c4cccs4)s3)c(Cl)cc2Cl)[C@H](O)[C@@H](O)[C@@H]1O [Example 61, (2S,3R,4R,5S,6R)-2-(2,4-Dichloro-5-((5-(thiophen-2-yl)thiazol-2-yl)methyl)phenyl)-6-(hydroxymethyl)tetrahydro-2H-pyran-3,4,5-triol]
2.31	OC[C@H]1O[C@@H](c2cc(Cc3ncc(-c4ccsc4)s3)c(Cl)cc2Cl)[C@H](O)[C@@H](O)[C@@H]1O [Example 62, (2S,3R,4R,5S,6R)-2-(2,4-Dichloro-5-((5-(thiophen-3-yl)thiazol-2-yl)methyl)phenyl)-6-(hydroxymethyl)tetrahydro-2H-pyran-3,4,5-triol]
49.1	Cc1cnc(Cc2cc([C@@H]3O[C@H](CO)[C@@H](O)[C@H](O)[C@H]3O)c(Cl)cc2Cl)s1 [Example 63, (2S,3R,4R,5S,6R)-2-(2,4-Dichloro-5-((5-methylthiazol-2-yl)methyl)phenyl)-6-(hydroxymethyl)tetrahydro-2H-pyran-3,4,5-triol]
26.3	CCc1cnc(Cc2cc([C@@H]3O[C@H](CO)[C@@H](O)[C@H](O)[C@H]3O)c(Cl)cc2Cl)s1 [Example 64, (2S,3R,4R,5S,6R)-2-(2,4-Dichloro-5-((5-ethylthiazol-2-yl)methyl)phenyl)-6-(hydroxymethyl)tetrahydro-2H-pyran-3,4,5-triol]
43.7	CCCc1cnc(Cc2cc([C@@H]3O[C@H](CO)[C@@H](O)[C@H](O)[C@H]3O)c(Cl)cc2Cl)s1 [Example 65, (2S,3R,4R,5S,6R)-2-(2,4-Dichloro-5-((5-propylthiazol-2-yl)methyl)phenyl)-6-(hydroxymethyl)tetrahydro-2H-pyran-3,4,5-triol]
60.5	CCCCc1cnc(Cc2cc([C@@H]3O[C@H](CO)[C@@H](O)[C@H](O)[C@H]3O)c(Cl)cc2Cl)s1 [Example 66, (2S,3R,4R,5S,6R)-2-(5-((5-Butylthiazol-2-yl)methyl)-2,4-dichlorophenyl)-6-(hydroxymethyl)tetrahydro-2H-pyran-3,4,5-triol]
38.7	CCCCCCc1cnc(Cc2cc([C@@H]3O[C@H](CO)[C@@H](O)[C@H](O)[C@H]3O)c(Cl)cc2Cl)s1 [Example 67, (2S,3R,4R,5S,6R)-2-(2,4-Dichloro-5-((5-hexylthiazol-2-yl)methyl)phenyl)-6-(hydroxymethyl)tetrahydro-2H-pyran-3,4,5-triol]
33	OC[C@H]1O[C@@H](c2cc(Cc3ncc(C4CCCC4)s3)c(Cl)cc2Cl)[C@H](O)[C@@H](O)[C@@H]1O [Example 68, (2S,3R,4R,5S,6R)-2-(2,4-Dichloro-5-((5-cyclopentylthiazol-2-yl)methyl)phenyl)-6-(hydroxymethyl)tetrahydro-2H-pyran-3,4,5-triol]
2.24	COc1cc(Cl)c(Cc2ncc(-c3ccco3)s2)cc1[C@@H]1O[C@H](CO)[C@@H](O)[C@H](O)[C@H]1O [Example 69, (2S,3R,4R,5S,6R)-2-(4-Chloro-5-((5-(furan-2-yl)thiazol-2-yl)methyl)-2-methoxyphenyl)-6-(hydroxymethyl)tetrahydro-2H-pyran-3,4,5-triol]
7.37	COc1cc(Cl)c(Cc2ncc(-c3ccoc3)s2)cc1[C@@H]1O[C@H](CO)[C@@H](O)[C@H](O)[C@H]1O [Example 70, (2S,3R,4R,5S,6R)-2-(4-Chloro-5-((5-(furan-3-yl)thiazol-2-yl)methyl)-2-methoxyphenyl)-6-(hydroxymethyl)tetrahydro-2H-pyran-3,4,5-triol]
1.29	COc1cc(Cl)c(Cc2ncc(-c3ccsc3)s2)cc1[C@@H]1O[C@H](CO)[C@@H](O)[C@H](O)[C@H]1O [Example 72, (2S,3R,4R,5S,6R)-2-(4-Chloro-2-methoxy-5-((5-(thiophen-3-yl)thiazol-2-yl)methyl)phenyl)-6-(hydroxymethyl)tetrahydro-2,1-pyran-3,4,5-triol]
2.01	COc1cc(Cl)c(Cc2ncc(-c3ccccc3)s2)cc1[C@@H]1O[C@H](CO)[C@@H](O)[C@H](O)[C@H]1O [Example 73, (2S,3R,4R,5S,6R)-2-(4-Chloro-2-methoxy-5-((5-phenylthiazol-2-yl)methyl)phenyl)-6-(hydroxymethyl)tetrahydro-2H-pyran-3,4,5-triol]
